The values below come from US8957108B2, “Use of 5,6-dimethylxanthenone-4-acetic acid as an antiviral agent” (University of Maryland, Baltimore, priority 2006, dated 2015).

Common to all, as to assay type: cell-based, mouse
For one assay, the system named is MEFs. In words: RANTES protein in MEF supernatants. The conditions noted are these: 24 h. On the procedure:
IFN-β protein in cell culture supernatants was measured using a custom ELISA originally described in Weinstein, S. L. et al. (2000) “Phosphatidylinositol 3-Kinase And mTOR Mediate Lipopolysaccharide-Stimulated Nitric Oxide Production In Macrophages Via Interferon-Beta,” J. Leukocyte Biol. 67:405-414, with few modifications. […] Plates were blocked with 10% FCS in 1×PBS for 2 h at room temperature. Samples and a murine IFN-β standard (NIH, Bethesda, Md.) were added to wells and incubated overnight at 4° C. […] Wells were washed 3× followed by incubation with a 1:2000 dilution of goat anti-rabbit HRP (Cell Signaling Technologies, Beverly, Mass.) in 10% FCS-PBS for 1 h at room temperature. Plates were washed 3× and developed with TMB substrate (KPL, Gaithersburg, Md.). The reaction was stopped by addition of 1N H2SO4, and plates were read at 450 nm. RANTES and TNF-α were quantified using Luminex bead-based colorimetric assays. […] For stimulation of cells, poly(I:C) was mixed with Fugene 6 transfection reagent (Roche) at a ratio of 1:1 (volume:weight) in OptiMEM medium and incubated for 15 min prior to stimulation. Culture supernatants of cells (2×10^4) seeded on 96-well plates were collected after 24 h stimulation and analyzed for RANTES levels with ELISA. ELISA was performed according to the manufacturer's instructions (R&D Systems).

For a further assay, the system named is peritoneal macrophages. As to the kind of experiment: Cytokine analysis of macrophage culture supernatants. The conditions noted are these: supernatants at 24 h.
The subject of another assay is IRF-3. As to the kind of experiment: Native-PAGE and Western blotting for IRF-3 dimers. The settings on record: peritoneal macrophages, DMXAA- vs. LPS-stimulated. On the procedure: Rabbit anti-mouse IκBα phospho-specific Ab (pAb) was purchased from Santa Cruz Biotechnology, Inc. (Santa Cruz, Calif.). Rabbit anti-mouse MAPK pAb and rabbit anti-human phospho-IRF-3 pAb antibodies were purchased from Cell Signaling (Danvers, Mass.). Rabbit anti-mouse IRF-3 pAb was purchased from Zymed (South San Francisco, Calif.). Native-PAGE for the detection of IRF-3 dimers was carried out as described in Iwamura, T. et al. (2001) “Induction Of IRF-3/-7 Kinase And NF-kappaB in Response To Double-Stranded RNA And Virus Infection: Common And Unique Pathways,” Genes and Cells 6:375-388. Briefly, thioglycollate-elicited peritoneal macrophages were lysed following stimulation with either LPS or DMXAA as indicated. […] Membranes were probed with a 1:250 dilution of rabbit anti-mouse IRF-3 for 1 h at room temperature. Goat anti-rabbit IgG-HRP (Cell Signaling Technologies, Danvers, Mass.) at a 1:2000 dilution was used as the secondary Ab. Blots were developed with ECL Plus (Amersham Biosciences, Piscataway, N.J.).

With `Cc1ccc2c(=O)c3cccc(CC(=O)O)c3oc2c1C` [DMXAA, 5,6-dimethylxanthenone-4-acetic acid], in the assay on MEFs, the “RANTES secretion in RIG-I−/− MEFs” value is listed as “intact” and the “induced RANTES in TRIF−/− MEFs” value was “unaffected by the absence of TRIF”. Moreover, in the assay with MEFs (MAVS+/+ and MAVS−/− MEFs), the “RANTES response in MAVS-deficient MEFs” value is on record as “induces RANTES via a MAVS-independent pathway”. Besides, in the assay on peritoneal macrophages, the “RANTES production in IRF-3−/− macrophages” value was “fail to produce RANTES” and the “secretion of TNF-α in IRF-3-deficient macrophages” value is on record as “reduced to background levels”. Besides, the “activated IRF-3 dimers” value in the assay with IRF-3 is “much more abundant and longer-lived”.
